# In patent publication US11918563B1, “Methods and compositions for treatment of epileptic disorders” (Ovid Therapeutics Inc., priority 2016, dated 2024):
# Where two headings read alike, the source gives them in different places. Marks after values point to notes of the source that are not given here.
# Tests used:
# [1] = human, in vivo, po
# [2] = system: Li-Pilo model of status epilepticus; experiment: Ability to block benzodiazepine-resistant status epilepticus in the Li-Pilo model; type: in vivo, male Sprague Dawley rats
# Procedure: At the conclusion of the behavioral observation period, a 3 mL injection of lactated Ringer's solution is administered to all surviving rats to replace any SE-induced fluid loss.
# All animals in the study are retained for 24 hours following completion of the study for assessment of weight change.
# Additional measures of effects, e.g., motor impairment, weight change post-SE, or survival from SE for 24 hrs are also recorded during the studies for all treatment conditions.
# [3] = for Fe: geometric mean N=10
# [4] = three-month efficacy study, insomnia; cited from earlier work
# [5] = patients with a history of drug abuse; cited from earlier work
# [6] = 0.5 mg/kg i.p. 30 min after first convulsive seizure, rats
# [7] = 2 mg/kg i.p. 30 min after first convulsive seizure, rats
# [8] = 5 mg/kg i.p. 30 min after first convulsive seizure, rats
# [9] = 10 mg/kg i.p. 30 min after first convulsive seizure, rats
# [10] = 20 mg/kg i.p. 30 min after first convulsive seizure, rats
Compound,Residual effect on primary endpoints Choice Reaction Time and Critical Flicker Fusion [1],"Protection (includes PK rats), percent [2, 6]","Protection (includes PK rats), protected/total [2, 6]","24-hour Survival (excludes PK rats), percent ([2]; 0.5 mg/kg i.p., rats)","24-hour Survival (excludes PK rats), survivors/total ([2]; 0.5 mg/kg i.p., rats)","Protection (includes PK rats), percent [2, 7]","Protection (includes PK rats), protected/total [2, 7]","24-hour Survival (excludes PK rats), percent ([2]; 2 mg/kg i.p., rats)","24-hour Survival (excludes PK rats), survivors/total ([2]; 2 mg/kg i.p., rats)","Protection (includes PK rats), percent [2, 8]","Protection (includes PK rats), protected/total [2, 8]","24-hour Survival (excludes PK rats), percent ([2]; 5 mg/kg i.p., rats)","24-hour Survival (excludes PK rats), survivors/total ([2]; 5 mg/kg i.p., rats)","Protection (includes PK rats), percent [2, 9]","Protection (includes PK rats), protected/total [2, 9]","24-hour Survival (excludes PK rats), percent ([2]; 10 mg/kg i.p., rats)","24-hour Survival (excludes PK rats), survivors/total ([2]; 10 mg/kg i.p., rats)","Protection (includes PK rats), percent [2, 10]","Protection (includes PK rats), protected/total [2, 10]","24-hour Survival (excludes PK rats), percent ([2]; 20 mg/kg i.p., rats)",other results
"CCN(CC)CCN1C(=O)CN=C(c2ccccc2F)c2cc(Cl)ccc21 [Flurazepam, flurazepam]",showed significant effect,–,–,–,–,–,–,–,–,–,–,–,–,–,–,–,–,–,–,–,–
"CC(=O)[C@H]1CC[C@H]2[C@@H]3CC[C@H]4C[C@](C)(O)CC[C@]4(C)[C@H]3CC[C@]12C [GNX, ganaxolone]",–,(0%),0/13,(60%),6/10,(0%),0/13,(80%),8/10,(0%),0/13,(70%),7/10,(7.7%),1/13,(90%),9/10,(30.8%)*,4/13,(90%),"Improvement in protection, in words ([2]; 20 mg/kg i.p., dose-dependent efficacy): significant (p<0.02) improvement in protection; 24-hour Survival (excludes PK rats), survivors/total ([2]; 20 mg/kg i.p., rats): 9/10"
"Oc1noc2c1CCNC2 [gaboxadol, 4,5,6,7-tetrahydroisoxazolo [5,4-c] pyridine-3-ol]",did not show residual effect,–,–,–,–,–,–,–,–,–,–,–,–,–,–,–,–,–,–,–,"24-hour survival, in words ([2]; 10 mg/kg, rats): Significant improvements in 24-hour survival; Dose-response profile of protection, in words ([2]; i.p., p=0.071 at 0.5 mg/kg): Potential for inverted U-response profile; Fe ([3]; 2.5 mg single oral dose): 43%; Fe ([3]; 5 mg single oral dose): 45%; Fe ([3]; 10 mg I.V.): 53%; Fe ([3]; 10 mg Oral): 53%; Fe ([3]; 15 mg single oral dose): 50%; Fe ([3]; 20 mg single oral dose): 53%; CL (in CL/F row) ([3]; human, in vivo, iv, 10 mg): 438 mL/min; AUC0-∞ Slope (dose proportionality assessment) ([3]; human, in vivo, po): 0.98; Cmax Slope (dose proportionality assessment) ([3]; human, in vivo, po): 0.95; CL/F ([3]; human, in vivo, po, 2.5 mg): 461 mL/min; CL/F ([3]; human, in vivo, po, 5 mg): 488 mL/min; CL/F ([3]; human, in vivo, po, 10 mg): 476 mL/min; CL/F ([3]; human, in vivo, po, 15 mg): 469 mL/min; CL/F ([3]; human, in vivo, po, 20 mg): 499 mL/min; Residual effects on other measurements (MSLT, DSST, Tracking, Memory tests, Body Sway, Leeds Sleep Evaluation Questionnaire) [1]: did not show any signs of residual effects; Effects in sleep onset and sleep maintenance [4]: failed to show significant effects; Psychiatric adverse events [5]: steep increase in psychiatric adverse events"
"CC(=O)[C@H]1CC[C@H]2[C@@H]3CC[C@H]4C[C@H](O)CC[C@]4(C)[C@H]3CC[C@]12C [ALLO, allopregnanolone]",–,(0%),0/13,(60%),6/10,(0%),0/13,(70%),7/10,(0%),0/13,(72%),7/9,(15%),2/13,(90%),9/10,(7.7%),1/13,(90%),"24-hour Survival (excludes PK rats), survivors/total ([2]; 20 mg/kg i.p., rats): 9/10"
